US20160000804A1, “INHIBITORS OF NA(V) 1.9 CHANNEL ACTIVITY AND USES THEREOF FOR TREATING PAIN” (UNIVERSITE D'AIX-MARSEILLE, priority 2013, published 2016)
“Also recorded” adds a separate entry of the source.

Legend:
mice = experiment: Carrageenan model of persistent paw inflammation, von Frey test; format: in vivo
Procedure: Persistent paw inflammation was induced by intraplantar injection of 20 μl of 2% λ-carrageenan (Sigma) in mice. Control animal received only vehicle saline solution (0.9% NaCl). 1 hr prior to carrageenan injection, animals received intra peritoneal injection of either saline or ibuprofen (75 mg/kg in saline solution). Mechanical pain threshold was assessed using von Frey filaments (BioSeb) calibrated from 0.008 to 4.000 g. The filaments were applied five times each, in order of increasing forces, and pressed perpendicularly to the plantar surface of the hindpaw until they bent. The first filament which evoked at least 3/5 response was assigned as the pain threshold in grams.

arthritic mice [1] = experiment: CFA induced chronic inflammation (monoarthritis), dynamic weight bearing; format: in vivo
Procedure: Chronic inflammation (monoarthritis model) was induced under 2% isoflurane anesthesia by two subcutaneous injections of 15 μl around the tibio-tarsal joint of mice with complete Freund adjuvant (CFA), containing 5 μg/μl heat-killed Mycobacterium butyricum (Becton, Dickinson and cie). The animals' weight distribution on the four limbs was assessed using the dynamic weight bearing test (BioSeb). This new incapacitance test consists in a continuous measurement of all pressure points applied by a freely moving animal, allowing a quantitative evaluation of the weight imbalance caused by paw mechanical allodynia. Mice were placed in an 11×11×22 cm cage with a 44×44 sensor cells grid on the floor. The pressure applied on sensor cells by the animal's paws is recorded at a 10 Hz frequency over a 5 min period. Pressure and surface detection thresholds were determined automatically for each animal by the Dynamic weight bearing 1.3.2h software (Bioseb). After the manual attribution of each pressure point to the corresponding paw, the mean weight applied on each paw is calculated. Unilateral pain is finally evaluated trough the ipsi/contralateral hindpaws weight ratio, the weight applied on forepaws, and the percentage of time spent raising ipsilateral hindpaw.

arthritic mice [2] = experiment: CFA chronic arthritis pain, transdermal gel, mechanical pain; format: in vivo; settings: gel application; cholesterol 28 mM or ibuprofen 5%
Procedure: Chronic inflammation (monoarthritis model) was induced under 2% isoflurane anesthesia by two subcutaneous injections of 15 μl around the tibio-tarsal joint of mice with complete Freund adjuvant (CFA), containing 5 μg/μl heat-killed Mycobacterium butyricum (Becton, Dickinson and cie). Mechanical pain threshold was assessed using von Frey filaments (BioSeb) calibrated from 0.008 to 4.000 g. The filaments were applied five times each, in order of increasing forces, and pressed perpendicularly to the plantar surface of the hindpaw until they bent. The first filament which evoked at least 3/5 response was assigned as the pain threshold in grams.

[3] = system: wild type and Nav1.9 KO mice; experiment: Von Frey test in non-inflamed animals; format: in vivo; settings: intraplantar injection, non-inflamed wild type and Nav1.9 KO mice
Procedure: (§1) Methyl βcyclodextrin or α-cyclodextrin (both from sigma) were diluted in saline buffer prior to injection. Methyl βcyclodextrin/cholesterol complex (40 mg of cholesterol/g of complex) also called soluble cholesterol was purchased (from Sigma). Unless otherwise states, all cyclodextrin or cyclodextrin/cholesterol complexes were injected at a 40 mM concentration of cyclodextrin corresponding to 5.6 mM of cholesterol in the complex. Mechanical pain threshold was assessed using von Frey filaments (BioSeb) calibrated from 0.008 to 4.000 g. The filaments were applied five times each, in order of increasing forces, and pressed perpendicularly to the plantar surface of the hindpaw until they bent. The first filament which evoked at least 3/5 response was assigned as the pain threshold in grams.

Nav1.9 = experiment: Whole-cell voltage clamp recording of Nav1.9 activation curve in DRG neurons; format: cell-based; settings: for reversal of the inflammatory cocktail-induced shift of Nav1.9 activation curve: cholesterol supply in presence of inflammatory cocktail; for shift of Nav1.9 activation curve: substance alone versus control neuron, MβCD 20 mM, water soluble cholesterol 20 mM, cholesterol oxidase 4 U/ml, 15 min 37° C.
Procedure: Dissociation of DRG neurons has been previously described (Coste et al., 2004; Coste et al., 2007). In brief, thoraco-lumbar DRG neurons were excised and incubated in enzyme solution containing 2 mg/ml of collagenase IA (Sigma) for 45 min at 37° C. before trituration in Hanks' medium (Life Technologies). Culture medium was Dulbecco's modified Eagle's medium (DMEM, Life Technologies) supplemented with 10% heat-inactivated fetal calf serum, 50 U/ml penicillin-streptomycin, 2 mML-glutamine, 25 mM glucose, 2 ng/ml glial-derived neurotrophic factor (GDNF) (all from Life Technologies), and 25 ng/ml nerve growth factor (NGF, Millipore). Cells were seeded on 35 mm cultures dishes (Nunc) coated with 2 mg/ml laminin (Sigma) and maintained in a humidified atmosphere (5% CO2, 37° C.) for 16-24 h before further cholesterol manipulations or electrophysiological recording.
Patch pipettes had resistances of 3-3.5 MΩ for whole-cell voltage clamp recordings. Intracellular solution used in this study contained: 130 CsCl, 10 HEPES, 8 NaCl, 5 EGTA, 2.4 CaCl2, 1 MgCl2 (pH 7.3, 298 mOsm/l). […] Extracellular solution contained 500 nM tetrodotoxin (TTX) as well as 1 mM amiloride and 50 μM La^3+ in order to block Ca^2+ currents without altering NaN/Nav1.9 properties (Coste et al., 2007). […]. Extracellular media were exchanged using a gravity-fed bath perfusion system at a flow rate of 2-5 ml/min, while bath solution was removed by continuous suction. Recycling was used to reduce the amount of TTX used. Stock solutions of TTX (0.1 mM) and La^3+ (1M) were prepared in water. Stock solution of amiloride hydrochloride (1M) was made in dimethylsulfoxyde (final concentration, 0.1%).
For drugs application, DRG cultures were incubated for 15 min at 37° C. in DMEM containing freshly prepared MβCD (20 mM), water soluble cholesterol (20 mM), or cholesterol oxidase (4 U/ml). The inflammatory cocktail was incubated in extracellular solution for at least 20 min at room temperature (RT).
Data were acquired with an Axopatch 200B amplifier (Axon Instruments), filtered at 2 kHz, and digitally sampled at 20 kHz using PCLAMP 10 software. Currents were leak subtracted using a P/6 protocol. Voltage errors were minimized using 70-85% series resistance compensation. Whole-cell recording were begun 1 min after achieving the whole-cell configuration, to allow Cs^+ to equilibrate and to allow Nav1.9 channels to recover from slow inactivation. Conductance-voltage curves were calculated from the peak current according to the equation G=I/(V−Erev), where V is the test pulse potential and Erev the reversal potential calculated according to the Nernst equation. The activation curve (G-V) was fitted using the Boltzmann function: G/Gmax=1/(1+exp[(V1/2−V)/k]), where G/Gmax is the normalized conductance, V1/2 is the potential of half-maximum channel activation, and k is the steepness factor.

[4] = system: wild type and Nav1.9 KO mice; experiment: Von Frey test after intraplantar injection of cyclodextrins (cholesterol depletion); format: in vivo; settings: for mechanical allodynia / tactile hyperalgesia (von Frey filament test): intraplantar injection of 20 μl of a 40 mM solution
Procedure: as §1

[5] = periarticular injection, 20 μl of a 5.6 mM solution, versus saline

CC(C)CCC[C@@H](C)[C@H]1CC[C@H]2[C@@H]3CC=C4C[C@@H](O)CC[C@]4(C)[C@H]3CC[C@]12C [cholesterol]
carrageenan induced mechanical allodynia, transdermal delivery (mice; gel with 5.6 mM cholesterol applied for 1.5 hrs, versus control gel): kills carragenin induced pain | lambda-carrageenan-induced tactile hyperalgesia (von Frey) (mice; intraplantar injection of soluble cholesterol, 5, 6 mM of cholesterol): inhibits inflammatory evoked pain | weight put on tail (arthritic mice [1]; periarticular cholesterol injection versus saline injected mice): reduces the weight put on tail | posture / behavioural parameters (dynamic weight bearing) (arthritic mice [1]; [5]): improved all posture parameters examined; also recorded: improve behavioural parameter of arthritic mice | weight borne by inflamed limbs (arthritic mice [1]; [5]): bear more weight than limbs injected with saline solution | chronic arthritis mechanical pain, transdermal delivery (arthritic mice [2]): much efficient to treat arthritic inflammatory pain than a 5% ibuprofen gel | mechanical threshold in physiological non-inflamed conditions [3]: without changing physiological mechanical threshold | mechanical threshold in physiological non-inflamed conditions ([3]; listed as Cholesterol): does not modify mechanical sensibility | reversal of the inflammatory cocktail-induced shift of Nav1.9 activation curve (Nav1.9): reverses this shift of activation | reversal of the inflammatory cocktail-induced shift of Nav1.9 activation curve (Nav1.9; listed as Cholesterol): reverses the shift | shift of Nav1.9 activation curve (Nav1.9): does not modify activation properties of Nav1.9

methyl-beta-cyclodextrin [MBCD]
mechanical allodynia / tactile hyperalgesia (von Frey filament test) ([4]; Nav1.9 KO mice): markedly reduced | mechanical allodynia / tactile hyperalgesia (von Frey filament test) ([4]; wild type mice): induces a strong mechanical allodynia | shift of Nav1.9 activation curve (Nav1.9): shift Nav1.9 activation curves to hyperpolarised potential | shift of Nav1.9 activation curve (Nav1.9; listed as MβCD): induces the same shift as inflammatory cocktail

cholesterol oxidase
shift of Nav1.9 activation curve (Nav1.9): induces the same shift as inflammatory cocktail; also recorded: shift Nav1.9 activation curves to hyperpolarised potential

CC(C)Cc1ccc(C(C)C(=O)O)cc1 (stereo not drawn) [ibuprofen]
lambda-carrageenan-induced tactile hyperalgesia (von Frey) (mice; intraperitoneal injection (75 mg/kg, 1 hr prior to carrageenan)): reverse lambdα-carrageenan-induced tactile hyperalgesia | effect on methyl-beta-cyclodextrin-induced allodynia (mechanical threshold) ([4]; intraperitoneal 75 mg/kg, wild type and Nav1.9 KO mice): does not modify methyl-beta-cyclodextrin-induced tactile hyperalgia; also recorded: does not reverse allodynic phenotype; also recorded: did not change mechanical threshold

OC[C@H]1O[C@@H]2O[C@H]3[C@H](O)[C@@H](O)[C@@H](O[C@H]4[C@H](O)[C@@H](O)[C@@H](O[C@H]5[C@H](O)[C@@H](O)[C@@H](O[C@H]6[C@H](O)[C@@H](O)[C@@H](O[C@H]7[C@H](O)[C@@H](O)[C@@H](O[C@H]1[C@H](O)[C@H]2O)O[C@@H]7CO)O[C@@H]6CO)O[C@@H]5CO)O[C@@H]4CO)O[C@@H]3CO [α-CD, α-cyclodextrin]
mechanical allodynia / tactile hyperalgesia (von Frey filament test) ([4]; Nav1.9 KO mice): did not induce mechanical allodynia | mechanical allodynia / tactile hyperalgesia (von Frey filament test) ([4]; wild type mice): did not induce mechanical allodynia | mechanical allodynia / tactile hyperalgesia (von Frey filament test) ([4]; wild type mice, listed as Alphα-cyclodextrin): does not induce tactile hyperalgia
